The target of this test is ClpP Enzyme. In kind it is biochemical. Conditions: pH 8.

The term IC50 denotes the concentration at which inhibition is half-maximal. Low readings indicate inhibition by little substance, high ones a need for much substance. With `O=[N+]([O-])C(=C1Nc2ccccc2N1)C(Cl)=C(Cl)Cl` [(I)], the IC50 was 23 µM.
As for `COc1ccc(/C=C(\C#N)c2nnc(/N=C/N(C)C)s2)cc1` [(III)], the figure is 25 µM; as for `Clc1nc2ccccc2nc1N1CC1` [(II)], 19 µM.
